Test system: HSSY-II complex spheroid growth, percent test/control
Experiment: Anticancer human tumor HSSY-II cell line growth inhibition [Asc];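 also: spheroids exposed to drug for 7 days before reading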
Details: for IC50: curve of first compound; for viability, T/C: stronger effect = lower value
Procedure, shortened: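 Spheroid model: tumor line + HUVEC + hMSC. Single agents and combinations; top conc. at/near clinical Cmax (10 microM if undetermined), half-log dilutions. DMSO stocks at 800-fold test concentration.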

[1] = second compound 0.1 µM, first compound 0.00316 µM
[2] = second compound 0.1 µM, first compound 0.01 µM
[3] = second compound 0.1 µM, first compound 0.0316 µM
[4] = second compound 0.1 µM, first compound 0.1 µM
[5] = second compound 0.316 µM, first compound 0.00316 µM
[6] = second compound 0.316 µM, first compound 0.01 µM
[7] = second compound 0.316 µM, first compound 0.0316 µM
[8] = second compound 0.316 µM, first compound 0.1 µM
[9] = second compound 1 µM, first compound 0.00316 µM
[10] = second compound 1 µM, first compound 0.01 µM
[11] = second compound 1 µM, first compound 0.0316 µM
[12] = second compound 1 µM, first compound 0.1 µM

Structure (SMILES): NC1CCC(NC2CC2c2ccccc2)CC1 (stereo not given) + CNC(C)C(=O)NC1CN(S(=O)(=O)c2cccc(S(=O)(=O)N3CCC4CCC(C(=O)NC(c5ccccc5)c5ccccc5)N4C(=O)C(NC(=O)C(C)NC)C3)c2)CCC2CCC(C(=O)NC(c3ccccc3)c3ccccc3)N2C1=O
- IC50 (second compound 0.01 µM): > 100 nM
- IC50 (second compound 0.0316 µM): < 0.316 nM
- IC50 (second compound 0.1 µM): 0.67 nM
- IC50 (second compound 0.316 µM): < 0.316 nM
- IC50 (second compound 1 µM): < 0.316 nM
- viability, T/C (second compound 0.01 µM, first compound 0.000316 µM): 59.5%
- viability, T/C (second compound 0.01 µM, first compound 0.001 µM): 59.1%
- viability, T/C (second compound 0.01 µM, first compound 0.00316 µM): 48.6%
- viability, T/C (second compound 0.01 µM, first compound 0.01 µM): 54.9%
- viability, T/C (second compound 0.01 µM, first compound 0.0316 µM): 56.4%
- viability, T/C (second compound 0.01 µM, first compound 0.1 µM): 52.1%
- viability, T/C (second compound 0.0316 µM, first compound 0.000316 µM): 43.9%
- viability, T/C (second compound 0.0316 µM, first compound 0.001 µM): 43.3%
- viability, T/C (second compound 0.0316 µM, first compound 0.00316 µM): 46.4%
- viability, T/C (second compound 0.0316 µM, first compound 0.01 µM): 49.3%
- viability, T/C (second compound 0.0316 µM, first compound 0.0316 µM): 45.5%
- viability, T/C (second compound 0.0316 µM, first compound 0.1 µM): 48.7%
- viability, T/C (second compound 0.1 µM, first compound 0.000316 µM): 56.2%
- viability, T/C (second compound 0.1 µM, first compound 0.001 µM): 46.3%
- viability, T/C [1]: 48.4%
- viability, T/C [2]: 49.2%
- viability, T/C [3]: 39%
- viability, T/C [4]: 49.9%
- viability, T/C (second compound 0.316 µM, first compound 0.000316 µM): 51.2%
- viability, T/C (second compound 0.316 µM, first compound 0.001 µM): 44.2%
- viability, T/C [5]: 49.4%
- viability, T/C [6]: 43.4%
- viability, T/C [7]: 47.1%
- viability, T/C [8]: 47.6%
- viability, T/C (second compound 1 µM, first compound 0.000316 µM): 38.7%
- viability, T/C (second compound 1 µM, first compound 0.001 µM): 47.1%
- viability, T/C [9]: 51.8%
- viability, T/C [10]: 41.2%
- viability, T/C [11]: 46.6%
- viability, T/C [12]: 52.7%

Structure (SMILES): O=C(c1ccc(F)c(F)c1Nc1ccc(I)cc1F)N1CC(O)([C@@H]2CCCCN2)C1 + Cc1c(S(C)(=O)=O)c(-c2cc(F)cc(N3CCN(c4ccc(NS(=O)(=O)c5ccc(NC(CCN6CCC(C(=O)OCCCP(=O)(O)O)CC6)CSc6ccccc6)c(S(=O)(=O)C(F)(F)F)c5)cc4)CC3)c2)c(-c2ccc(Cl)cc2)n1C(C)C
- IC50 (second compound 0.1 µM): 566 nM
- IC50 (second compound 0.316 µM): 575 nM
- IC50 (second compound 1 µM): 576 nM
- IC50 (second compound 3.16 µM): 511 nM
- IC50 (second compound 10 µM): 563 nM
- viability, T/C [1]: 97.4%
- viability, T/C [2]: 111%
- viability, T/C [3]: 106%
- viability, T/C [4]: 112%
- viability, T/C (second compound 0.1 µM, first compound 0.316 µM): 77.6%
- viability, T/C (second compound 0.1 µM, first compound 1 µM): 22.9%
- viability, T/C [5]: 110%
- viability, T/C [6]: 107%
- viability, T/C [7]: 99.5%
- viability, T/C [8]: 117%
- viability, T/C (second compound 0.316 µM, first compound 0.316 µM): 79.3%
- viability, T/C (second compound 0.316 µM, first compound 1 µM): 22.9%
- viability, T/C [9]: 115%
- viability, T/C [10]: 110%
- viability, T/C [11]: 114%
- viability, T/C [12]: 110%
- viability, T/C (second compound 1 µM, first compound 0.316 µM): 81.8%
- viability, T/C (second compound 1 µM, first compound 1 µM): 20.8%
- viability, T/C (second compound 3.16 µM, first compound 0.00316 µM): 107%
- viability, T/C (second compound 3.16 µM, first compound 0.01 µM): 101%
- viability, T/C (second compound 3.16 µM, first compound 0.0316 µM): 105%
- viability, T/C (second compound 3.16 µM, first compound 0.1 µM): 98.7%
- viability, T/C (second compound 3.16 µM, first compound 0.316 µM): 71.8%
- viability, T/C (second compound 3.16 µM, first compound 1 µM): 19.6%
- viability, T/C (second compound 10 µM, first compound 0.00316 µM): 96.2%
- viability, T/C (second compound 10 µM, first compound 0.01 µM): 96.4%
- viability, T/C (second compound 10 µM, first compound 0.0316 µM): 104%
- viability, T/C (second compound 10 µM, first compound 0.1 µM): 104%
- viability, T/C (second compound 10 µM, first compound 0.316 µM): 81.7%
- viability, T/C (second compound 10 µM, first compound 1 µM): 18.1%
